Assay results reported in patent publication US9243002B2, “Tetracyclic heterocycle compounds and methods of use thereof for the treatment of hepatitis C” (priority 2013, dated 2016).
Read-outs that look alike come from different tables or passages of the source.

Columns and labels:
HCV genotype 1a replicon = test: HCV replicon assay, genotype 1a (cell ELISA for NS3/4A); format: cell-based, hepatitis C virus
Procedure: (§1) Measurement of inhibition by compounds was performed using the HCV replicon system. Several different replicons encoding different HCV genotypes or mutations were used. In addition, potency measurements were made using different formats of the replicon assay, including different ways of measurements and different plating formats. See Jan M. Vrolijk et al., A replicons-based bioassay for the measurement of interferons in patients with chronic hepatitis C, 110 J. VIROLOGICAL METHODS 201 (2003); Steven S. Carroll et al., Inhibition of Hepatitis C Virus RNA Replication by 2′-Modified Nucleoside Analogs, 278 (14) J. BIOLOGICAL CHEMISTRY 11979 (2003). However, the underlying principles are common to all of these determinations, and are outlined below.
(§2) Stable neomycin phosphotransferase encoding replicons-harboring cell lines were used, so all cell lines were maintained under G418 selection prior to the assay. Potency was deteremined using a cell ELISA assay with an antibody to the replicons encoded NS3/4a protease. See Caterina Trozzi et al., In Vitro Selection and Characterization of Hepatitis C Virus Serine Protease Variants Resistant to an Active-Site Peptide Inhibitor, 77 (6) J. Virol. 3669 (2003). To initiate an assay, replicon cells were plated in the presence of a dilution series of test compound in the absence of G418. Typically, the assays were performed in a 96-well plate formate for manual operation, or a 384-well plate format for automated assay. Replicon cells and compound were incubated for 96 hours. At the end of the assay, cells were washed free of media and compound, and the cells were then lysed. RNA was quantified indirectly through detection of replicon-encoded NS3/4A protein levels, through an ELISA-based assay with an antibody specific for NS3/4A. IC50 determinations were calculated as a percentage of a DMSO control by fitting the data to a four-parameter fit function and the data obtained for genotypes 1a and 1b using this method is provided in the table below.

HCV genotype 1b replicon = test: HCV replicon assay, genotype 1b (cell ELISA for NS3/4A); format: cell-based, hepatitis C virus
Procedure: as §1, §2

[1] = Hepatitis C virus, 96 h, read-out: 1a IC50 (nM), genotype 1a replicon cells, 96 hours incubation, NS3/4A ELISA
[2] = Hepatitis C virus, 96 h, read-out: 1b IC50 (nM), genotype 1b replicon cells, 96 hours incubation, NS3/4A ELISA
[3] = read-out: 1a IC50, genotype 1a replicon cells, 96 hours incubation, NS3/4A ELISA
[4] = read-out: 1b IC50, genotype 1b replicon cells, 96 hours incubation, NS3/4A ELISA

SMILES	IC50 (HCV genotype 1a replicon; [1]) [nM]	IC50 (HCV genotype 1b replicon; [2]) [nM]	IC50 (HCV genotype 1a replicon; [3]) [nM]	IC50 (HCV genotype 1b replicon; [4]) [nM]
CNC(=O)c1c(-c2cnn3c2CCCC3)oc2cc(N(C)S(C)(=O)=O)c(-c3ccc4c(n3)-c3cc5c(F)cccc5n3CC4)cc12 [Example 21]	149	34.3		
CNC(=O)c1c(-c2cnc(N3CCCC3)s2)oc2cc(N(C)S(C)(=O)=O)c(-c3ccc4c(n3)-c3cc5c(F)cccc5n3CC4)cc12 [Example 22]	1450	163		
CNC(=O)c1c(-c2cnn(CCO)c2)oc2cc(N(C)S(C)(=O)=O)c(-c3ccc4c(n3)-c3cc5c(F)cccc5n3CC4)cc12 [Example 23]	212	83.2		
CNC(=O)c1c(-c2cnn3ncccc23)oc2cc(N(C)S(C)(=O)=O)c(-c3ccc4c(n3)-c3cc5c(F)cccc5n3CC4)cc12 [Example 24]	20	18.9		
CNC(=O)c1c(-c2ccn[nH]2)oc2cc(N(C)S(C)(=O)=O)c(-c3ccc4c(n3)-c3cc5c(F)cccc5n3CC4)cc12 [Example 25]	287	99.4		
CNC(=O)c1c(-c2c(C)n[nH]c2C)oc2cc(N(C)S(C)(=O)=O)c(-c3ccc4c(n3)-c3cc5c(F)cccc5n3CC4)cc12 [Example 26]	69.3	84.4		
CCn1cc(-c2oc3cc(N(C)S(C)(=O)=O)c(-c4ccc5c(n4)-c4cc6c(F)cccc6n4CC5)cc3c2C(=O)NC)cn1 [Example 27]	9.13	11.1		
CNC(=O)c1c(-c2ccc(C(F)F)cc2)oc2cc(N(C)S(C)(=O)=O)c(-c3ccc4c(n3)-c3cc5c(F)cccc5n3CC4)cc12 [Example 29, 2-(4-(difluoromethyl)phenyl)-5-(11-fluoro-5,6-dihydroindolo[1,2-h][1,7]naphthyridin-2-yl)-N-methyl-6-(N-methylmethylsulfonamido)benzofuran-3-carboxamide]	13.5	15.5		
CNC(=O)c1c(-c2ccc(F)cc2F)oc2cc(N(C)S(C)(=O)=O)c(-c3ccc4c(n3)-c3cc5c(F)cccc5n3CC4)cc12 [Example 30, 2-(2,4-difluorophenyl)-5-(11-fluoro-5,6-dihydroindolo[1,2-h][1,7]naphthyridin-2-yl)-N-methyl-6-(N-methylmethylsulfonamido)benzofuran-3-carboxamide]	2.49	3.81		
CNC(=O)c1c(-c2ccc(F)cc2)oc2cc(N(C)S(C)(=O)=O)c(-c3ccc4c(n3)-c3cc5cc(F)ccc5n3CC4)cc12 [Example 31, 5-(10-fluoro-5,6-dihydroindolo[1,2-h][1,7]naphthyridin-2-yl)-2-(4-fluorophenyl)-N-methyl-6-(N-methylmethylsulfonamido)benzofuran-3-carboxamide]	4.53	4.64		
CNC(=O)c1c(-n2ccc(C)cc2=O)oc2cc(N(C)S(C)(=O)=O)c(-c3ccc4c(n3)-c3cc5c(F)cccc5n3CC4)cc12 [Example 32, 5-(11-fluoro-5,6-dihydroindolo[1,2-h][1,7]naphthyridin-2-yl)-N-methyl-2-(4-methyl-2-oxopyridin-1 (2H)-yl)-6-(N-methylmethylsulfonamido)benzofuran-3-carboxamide]	10.6	3.95		
CNC(=O)c1c(-n2cc(C(F)(F)F)cn2)oc2cc(N(C)S(C)(=O)=O)c(-c3ccc4c(n3)-c3cc5c(F)cccc5n3CC4)cc12 [Example 33]	170	23.6		
CNC(=O)c1c(-n2ccccc2=O)oc2cc(N(C)S(C)(=O)=O)c(-c3ccc4c(n3)-c3cc5c(F)cccc5n3CC4)cc12 [Example 34]	5.38	4.66		
CNC(=O)c1c(-c2nocc2C)oc2cc(N(C)S(C)(=O)=O)c(-c3ccc4c(n3)-c3cc5c(F)cccc5n3CC4)cc12 [Example 35, 5-(11-fluoro-5,6-dihydroindolo[1,2-h][1,7]naphthyridin-2-yl)-N-methyl-2-(4-methylisoxazol-3-yl)-6-(N-methylmethylsulfonamido)benzofuran-3-carboxamide]	3.28	5.19		
CNC(=O)c1c(-c2cnc(C)s2)oc2cc(N(C)S(C)(=O)=O)c(-c3ccc4c(n3)-c3cc5c(F)cccc5n3CC4)cc12 [Example 36, 5-(11-fluoro-5,6-dihydroindolo[1,2-h][1,7]naphthyridin-2-yl)-N-methyl-6-(N-methylmethylsulfonamido)-2-(2-methylthiazol-5-yl)benzofuran-3-carboxamide]	10.3	10.2		
CNC(=O)c1c(-c2cncs2)oc2cc(N(C)S(C)(=O)=O)c(-c3ccc4c(n3)-c3cc5c(F)cccc5n3CC4)cc12 [Example 37]	9.83	14.2		
CCc1ncc(-c2oc3cc(N(C)S(C)(=O)=O)c(-c4ccc5c(n4)-c4cc6c(F)cccc6n4CC5)cc3c2C(=O)NC)s1 [Example 38]	21.8	17		
CNC(=O)c1c(-c2ccc(F)cc2)oc2cc(N(C)S(C)(=O)=O)c(-c3cc4c(cn3)CCn3c-4cc4c(F)cccc43)cc12 [Example 39, 5-(11-fluoro-5,6-dihydroindolo[2,1-a][2,6]naphthyridin-2-yl)-2-(4-fluorophenyl)-N-methyl-6-(N-methylmethylsulfonamido)benzofuran-3-carboxamide]	2.71	2.83		
CNC(=O)c1c(-c2ccc(C)nc2)oc2cc(N(C)S(C)(=O)=O)c(-c3cc4c(cn3)CCn3c-4cc4c(F)cccc43)cc12 [Example 40]	16.6	17.1		
CNC(=O)c1c(-c2ccc(F)cc2)oc2cc(N(C)S(C)(=O)=O)c(-c3cnc4c(c3)-c3cc5c(F)cccc5n3CC4)cc12 [Example 43, 5-(11-fluoro-5,6-dihydroindolo[2,1-f][1,6]naphthyridin-2-yl)-2-(4-fluorophenyl)-N-methyl-6-(N-methylmethylsulfonamido)benzofuran-3-carboxamide]	1.74	3.7		
CNC(=O)c1c(-c2ccc(F)cc2)oc2cc(N(C)S(C)(=O)=O)c(-c3cnc4c(n3)-c3cc5c(F)cccc5n3CC4)cc12 [Example 44, 5-(11-fluoro-5,6-dihydropyrazino[2′,3′:3,4]pyrido[1,2-a]indol-2-yl)-2-(4-fluorophenyl)-N-methyl-6-(N-methylmethylsulfonamido)benzofuran-3-carboxamide]	1.76	1.87		
CNC(=O)c1c(-c2ccc(F)cc2)oc2nc(N(C)S(C)(=O)=O)c(-c3ccc4c(n3)-c3cc5c(F)cccc5n3CC4)cc12 [Example 45, 5-(11-fluoro-5,6-dihydroindolo[1,2-h][1,7]naphthyridin-2-yl)-2-(4-fluorophenyl)-N-methyl-6-(N-methylmethylsulfonamido)furo[2,3-b]pyridine-3-carboxamide]	4.29	8.72		
CNC(=O)c1c(-c2ccc(F)cc2)nn2cc(N(C)S(C)(=O)=O)c(-c3ccc4c(n3)-c3cc5c(F)cccc5n3CC4)cc12 [Example 46, 5-(11-fluoro-5,6-dihydroindolo[1,2-h][1,7]naphthyridin-2-yl)-2-(4-fluorophenyl)-N-methyl-6-(N-methylmethylsulfonamido)pyrazolo[1,5-a]pyridine-3-carboxamide]	2.23	2.4		
CNC(=O)c1c2cc(-c3ccc4c(n3)-c3cc5c(F)cccc5n3CC4)c(N(C)S(C)(=O)=O)cc2nn1-c1ccc(F)cc1 [Example 47, 5-(11-fluoro-5,6-dihydroindolo[1,2-h][1,7]naphthyridin-2-yl)-2-(4-fluorophenyl)-N-methyl-6-(N-methylmethylsulfonamido)-2H-indazole-3-carboxamide]	14.5	8.46		
CNC(=O)c1c(-c2ccc(F)cc2)oc2cc(N(C)S(C)(=O)=O)c(-c3cc4c(nn3)CCn3c-4cc4c(F)cccc43)cc12 [Example 48, 5-(11-fluoro-5,6-dihydropyridazino[4′,3′:3,4]pyrido[1,2-a]indol-2-yl)-2-(4-fluorophenyl)-N-methyl-6-(N-methylmethylsulfonamido)benzofuran-3-carboxamide]	1.72	2.64		
CNC(=O)c1c(-c2ccc(F)cc2)oc2cc(N(C)S(C)(=O)=O)c(-c3ccc4c(n3)-c3cc5c(F)cccc5n3C(CO)C4)cc12 (stereo not shown) [Example 52]		2.32	3.35	
CNC(=O)c1c(-c2ccc(F)cc2)oc2cc(N(C)S(C)(=O)=O)c(-c3ccc4c(n3)-c3cc5c(F)cccc5n3C(CO)C4)cc12 (stereo not shown) [Example 53]			8.07	4.03
CNC(=O)c1c(-c2ccc(F)cc2)oc2cc(N(C)S(C)(=O)=O)c(-c3ccc4c(n3)-c3cc5c(F)cccc5n3C(CO)C4)cc12 (stereo not shown) [Example 54]			1.56	2.25
CNC(=O)c1c(-c2ccc(F)cc2)oc2cc(N(C)S(C)(=O)=O)c(-c3ccc4c(n3)-c3cc5c(F)cccc5n3C4CO)cc12 (stereo not shown) [Example 55]	0.971	1.81		
